Test results reported in patent US20250332173A1, “COMPOUNDS AND METHODS FOR MODULATING NUCLEIC ACID SPLICING” (REMIX THERAPEUTICS INC., priority 2021, published 2025).

tested on: Target C; experiment: HiBiT protein abundance assay, Target C (Promega Nano-Glo HiBiT Lytic Detection System, knock-in K562 cell line); type: cell-based, human; settings: Homo sapiens, K562, 24 h, HiBiT K562 cell line, 24 hours, top dose 10 μM; read-out: Effect on protein abundance, Target C (IC50 category)
Summary of the method: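 Protein abundance was read by Nano-Glo HiBiT lytic luminescence after 24 h compound exposure (10-point, threefold series from 10 μM final) of HiBiT knock-in K562 cells. Parental K562 served as baseline; the 50%-abundance concentration was interpolated from a four-parameter logistic fit.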

Structure (SMILES) | IC50 [nM]
Cc1cn2cc(-c3cc(F)c4c(=O)n(C5CNCCC5=O)cnc4c3)cc(F)c2n1 (stereo not shown) [Compound 352, 5-fluoro-7-{8-fluoro-2-methylimidazo[1,2-a]pyridin-6-yl}-3-(4-oxopiperidin-3-yl)quinazolin-4-one] | > 10000
CNc1cc(-c2cc(F)c3nc(C)cn3c2)cc2ncn(C3CCNCC3)c(=O)c12 [Compound 358, 7-{8-fluoro-2-methylimidazo[1,2-a]pyridine-6-yl}-5-(methylamino)-3-(piperidin-4-yl)quinazolin-4-one] | 1000 to 10000
CNc1cc(-c2cc(C)c3nc(C)cn3n2)cc2ncn(C3CCNCC3)c(=O)c12 [Compound 359, 7-{2,8-dimethylimidazo[1,2-b]pyridazin-6-yl}-5-(methylamino)-3-(piperidin-4-yl)quinazolin-4-one] | 1000 to 10000
CNc1cc(-c2cn3cc(C)nc3c(C)n2)cc2ncn(C3CCNCC3)c(=O)c12 [Compound 360, 7-{2,8-dimethylimidazo[1,2-a]pyrazine-6-yl}-5-(methylamino)-3-(piperidin-4-yl)quinazolin-4-one] | > 10000
Cc1cn2nc(-c3cc(O)c4c(=O)n(C5CCNC5)cnc4c3)cc(C)c2n1 (stereo not shown) [Compound 362, 7-{2,8-dimethylimidazo[1,2-b]pyridazin-6-yl}-5-hydroxy-3-(pyrrolidin-3-yl)quinazolin-4-one] | > 10000
CNc1cc(-c2cc(C#N)c3nc(C)cn3c2)cc2ncn(C3CCNCC3)c(=O)c12 [Compound 363, 2-methyl-6-[5-(methylamino)-4-oxo-3-(piperidin-4-yl)quinazolin-7-yl]imidazo[1,2-a]pyridine-8-carbonitrile] | 1000 to 10000

More lines, now with the values ahead:

IC50 [nM] | Structure (SMILES)
< 100 | Cc1cn2nc(-c3ccc4c(=O)n([C@@H]5CCNC6(CC6)C5)cnc4c3)cc(C)c2n1 [Compound 350, 3-[(7R)-4-azaspiro[2.5]octan-7-yl]-7-{2,8-dimethylimidazo[1,2-b]pyridazin-6-yl}quinazolin-4-one]
< 100 | Cc1cn2nc(-c3cc(F)c4c(=O)n(C5CCNC6(CC6)C5)cnc4c3)cc(C)c2n1 (stereo not shown) [Compound 351]
1000 to 10000 | Cc1cn2cc(-c3cc(F)c4c(=O)n(C5CCCNCC5)cnc4c3)cc(F)c2n1 (stereo not shown) [Compound 353, 3-(azepan-4-yl)-5-fluoro-7-{8-fluoro-2-methylimidazo[1,2-a]pyridin-6-yl}quinazolin-4-one]
1000 to 10000 | Cc1ncc(-c2ccc3c(=O)n(C4CCNCC4)cnc3c2)cn1 [Compound 354, 7-(2-methylpyrimidin-5-yl)-3-(piperidin-4-yl)quinazolin-4(3H)-one]
< 100 | Cc1cn2nc(-c3cc(C)c4c(=O)n(C5CCNCC5)cnc4c3)cc(C)c2n1 [Compound 355]
< 100 | Cc1cn2nc(-c3cc(F)c4c(=O)n([C@@H]5CCNC6(CC6)C5)cnc4c3)cc(C)c2n1 [Compound 356]
< 100 | Cc1cc(-c2cc(F)c3c(=O)n(C4CCNC5(CC5)C4)cnc3c2)nc2cn(C)nc12 (stereo not shown) [Compound 361, 3-{4-azaspiro[2.5]octan-7-yl}-7-{2,7-dimethylpyrazolo[4,3-b]pyridin-5-yl}-5-fluoroquinazolin-4-one]
